Holding throughout (assay type): cell-based, human
In one assay the test system is HT29. Description: NCI60 one-dose screen, HT29. Particulars: HT29 (Colon Cancer); NCI 60 one-dose, 10^-5 M. As for the experimental part: (§1) Anti-cancer activity screening of all compounds was performed by the NCI Developmental Therapeutics Program (DTP) through their NCI60 screening initiative. Assay details can be found at the website dtp.cancer.gov/discovery_development/nci-60/methodology.htm. Information from this website is reproduced here for convenience.
(§2) As of early 2007 all compounds submitted to the NCI 60 Cell screen are tested initially at a single high dose (10^-5 M) in the full NCI 60 cell panel. Only compounds which satisfy pre-determined threshold inhibition criteria in a minimum number of cell lines will progress to the full 5-dose assay. The threshold inhibition criteria for progression to the 5-dose screen was selected to efficiently capture compounds with anti-proliferative activity based on careful analysis of historical DTP screening data. The threshold criteria may be updated as additional data becomes available.
(§3) The One-dose data will be reported as a mean graph of the percent growth of treated cells and will be similar in appearance to mean graphs from the 5-dose assay. […]
(§4) Following drug addition, the plates are incubated for an additional 48 h at 37° C., 5% CO2, 95% air, and 100% relative humidity. […] Bound stain is subsequently solubilized with 10 mM trizma base, and the absorbance is read on an automated plate reader at a wavelength of 515 nm. […]

Another assay concerns ACHN. Description: NCI60 one-dose screen, ACHN. Particulars: ACHN (Renal Cancer); NCI 60 one-dose, 10^-5 M. As for the experimental part:
as §1, §2, §3, §4

Another assay deals with SNB-19. Description: NCI60 one-dose screen, SNB-19. Particulars: SNB-19 (CNS Cancer); NCI 60 one-dose, 10^-5 M. As for the experimental part:
as §1, §2, §3, §4

For another assay, the system named is OVCAR-3. Description: NCI60 one-dose screen, OVCAR-3. Particulars: OVCAR-3 (Ovarian Cancer); NCI 60 one-dose, 10^-5 M. The protocol: as §1, §2, §3, §4
A further assay concerns KM12. Description: NCI60 one-dose screen, KM12. Particulars: KM12 (Colon Cancer); NCI 60 one-dose, 10^-5 M. The protocol: as §1, §2, §3, §4
Another assay relates to HS 578T. Description: NCI60 one-dose screen, HS 578T. Particulars: HS 578T (Breast Cancer); NCI 60 one-dose, 10^-5 M. The protocol: as §1, §2, §3, §4

For the compound `CC(=O)N1c2ccccc2NC2=C(C(=O)N(Cc3ccccc3)C2(C)C)C1c1ccco1` (stereo not drawn) [NUCC-608455], the “Growth Percent” value is recorded as 9.99% in the assay on HT29; 33.51% in the assay with ACHN; 23.61% with SNB-19; −7.65% in the assay on OVCAR-3; 14.83% in the assay with KM12; 10.67% with HS 578T.
`CC(=O)N1c2ccccc2NC2=C(C(=O)N(C)C2(C)C)C1c1ccccc1` (stereo not drawn) [NUCC-60872]: the “Growth Percent” value with HT29 is reported as 25.22%; in the assay on ACHN, 95.96%; with SNB-19, 39.87%; with OVCAR-3, 18.09%; in the assay with KM12 it was 19.79%; in the assay with HS 578T it was 20.42%.

These data come from US12252492B2, “Substituted fused pyrrolo-diazepinones and uses thereof” (Northwestern University, priority 2018, dated 2025).
